From patent publication US10251927B2, “Process to enhance the bioactivity of Ashwagandha extracts” (priority 2015, dated 2019)
Values joined by “and” are separate entries in the source; they are usually repeats but may differ in a detail not shown here. Identical values can stand only once. Like-named read-outs stand apart in the source and are kept apart here.

How the values were obtained:
[1] = test system: Albino Wistar rats; assay: Anoxia stress tolerance test (Example 16); assay type: in vivo, rat; details: 2 mg/kg p.o.
Experimental: Albino Wistar rats of either sex weighing 150-220 g were selected and divided into 11 groups of six each and following treatment was given after one week of acclimatization:
Animals were treated as shown above for the 3 weeks. At the end of 1st, 2nd and 3rd week i.e. on 7th, 14th and 21st day 1 h after the treatment stress was induced by placing each animal individually in the hermetic vessel of 1 L capacity to record anoxia tolerance time. The time duration of entry of the animal into the hermetic vessel and the appearance of the first convulsion was taken as time of anoxia.

[2] = test system: streptozotocin induced diabetic rats; assay: Antidiabetic activity in streptozotocin induced diabetic rats (Example 32); assay type: in vivo, rat; details: STZ diabetic rats
Experimental: Male/Female albino wistar rats were maintained as per standard guidelines: housed in polypropylene cages, under 12 hour artificial light and dark cycles at a temperature of 24±2° C., given a standard pellet diet and water ad libitum. The animals were acclimatized to the animal house conditions for a week before beginning the experiment. Diabetes was induced by injecting streptozotocin 35mg/kg dissolved in 0.1 M citrate buffer of pH 4.5, intra-peritoneally. […] Animals with FBG above 200 mg/dl were considered diabetic. The diabetic animals were randomly divided into 13 groups of six animals each. One normal group was also included comprising of six normal rats.

[3] = test system: streptozotocin induced diabetic rats; assay: Antidiabetic activity of coated extracts in different doses in streptozotocin induced diabetic rats (Example 33); assay type: in vivo, rat; details: STZ diabetic rats
Experimental: Different Ashwagandha extracts with coating in different dosages was evaluated for antidiabetic activity in experimental rats. Male/Female albino wistar rats were maintained as per standard guidelines: housed in polypropylene cages, under 12 hour artificial light and dark cycles at a temperature of 24±2° C., given a standard pellet diet and water ad libitum. The animals were acclimatized to the animal house conditions for a week before beginning the experiment. Diabetes was induced by injecting streptozotocin 35 mg/kg dissolved in 0.1 M citrate buffer of pH 4.5, intra-peritoneally. Five days after induction of diabetes (day 1 of the study), animals were fasted for 12 hours and the fasting blood glucose level (FBG) was estimated for diagnosing diabetic rats. Animals with FBG above 200 mg/dl were considered diabetic. The diabetic animals were randomly divided into 13 groups of 4 animals each.
Fasting blood glucose level and body weight of rats was measured initially and then at Day 7, Day 14, Day 21 and Day 28 of the study.

[4] = test system: rats; assay: Forced swim test after reserpine, different percentage of enteric coating (Example 31); assay type: in vivo, rat; details: Reserpine 6 mg/kg i.p.; 10 mg/kg p.o.; test after 2 hour; vehicle 250, normal control 120
Experimental: Efficacy Study of Different Ashwagandha Extracts Granules with Different Percentage of Enteric Coating. 44 rats were divided into 11 groups comprising of 4 rats in each group. The animals were trained for swimming test (15 minutes) as pre-test session and then fasted overnight. To the fasted animals, reserpine (6 mg/kg) was injected i.p. to depress the animals. Immediately after the reserpine injection, the test samples (ashwagandha root powder) with different percentage of enteric coating/standard were fed orally as designated dose. After 2 hour of test sample/standard, the rats were tested using forced swim test and duration of immobility in the 5 minutes test session was recorded. In this test more immobility time indicate that animal is more depressed or stressed.
The test was repeated with different percentage of coated ashwagandha extract containing 3.5% withanolide glycosides and different percentage of coated ashwagandha extract containing 35% and 80% withanolide glycosides.

[5] = test system: rats; assay: Forced swim test after reserpine, normal (film), enteric and delayed release coating (Example 30); assay type: in vivo, rat; details: Reserpine 6 mg/kg i.p.; 10 mg/kg p.o.; test after 2 hour; vehicle 250, normal control 120
Experimental: 60 rats were divided into 15 groups comprising of 4 rats in each group. The animals were trained for swimming test (15 minutes) as pre-test session and then fasted overnight. To the fasted animals, reserpine (6 mg/kg) was injected i.p. to depress the animals. Immediately after reserpine injection, the test samples with normal (Hydroxy Propyl Cellulose; HPC), enteric (Eudragit) and delayed release (High percentage of Eudragit) coating/standard were fed orally as designated doses. After 2 hour of test sample/standard, the rats were tested using forced swim test and duration of immobility in the 5 minutes test session was recorded. In this test more immobility time indicate that animal is more depressed or stressed.

[6] = test system: rats; assay: Forced swim test after reserpine injection, enteric and nonenteric coated extracts (Example 14); assay type: in vivo, rat; details: Reserpine 6 mg/kg i.p.; 10 mg/kg p.o.; vehicle 250, normal control 120
Experimental: 92 rats were divided into twenty three groups. Each group had 4 rats. The animals were trained for swimming test (15 minutes) as pre-test session and then fasted overnight. To the fasted animals, reserpine (6 mg/kg) was injected i.p. to depress the animals. After 1 hour of reserpine injection, the test samples/standard was fed orally as designated dose. After 1 hour of test sample/standard, the rats were tested using forced swim test and duration of immobility in the 5 minutes test session was recorded.

[7] = test system: rats; assay: Forced swim test after reserpine, powder/extracts treated at different pH (Example 29); assay type: in vivo, rat; details: Reserpine 6 mg/kg i.p.; 10 mg/kg p.o.; vehicle 250, normal control 120
Experimental: Ashwagandha powder/extract was added to different buffer(pH 1,2,3,5,7 and 7.4) in 1:20 ratio of Ashwagandh powder/extract: buffer. The extract -buffer solution was kept in a waterbath at 37° C. for 2 hrs. The solution was neutralised by adding base or acid solution. The neutralised solution was concentrated and dried.
The animals were trained for swimming test (15 minutes) as pre-test session and then fasted overnight. To the fasted animals, reserpine (6 mg/kg) was injected i.p. to depress the animals. After 1 hour of reserpine injection, the test samples treated at different pH/standard were fed orally as designated dose. After 1 hour of test sample/standard, the rats were tested using forced swim test and duration of immobility in the 5 minutes test session was recorded. In this test more immobility time indicate that animal is more depressed or stressed.

[8] = test system: rats; assay: Forced swim test after reserpine injection, different Ashwagandha extracts (Example 13); assay type: in vivo, rat; details: Reserpine 6 mg/kg i.p.; 10 mg/kg p.o.; vehicle 210, normal control 120
Experimental: 44 rats were divided into eleven groups having 4 rats in each group. The animals were trained for swimming test (15 minutes) as pre-test session and then fasted overnight. To the fasted animals, reserpine (6 mg/kg) was injected i.p. to depress the animals. After 1 hour of reserpine injection, the test samples/standard was fed orally as designated dose.

[9] = test system: wistar rats; assay: Carrageenan induced paw edema model (Example 16); assay type: in vivo; details: Rattus norvegicus, po, 10 mg/kg p.o. single dose, read-out: Percentage inhibition (%) of inflammation
Experimental: Fourty five wistar rats were divided into nine groups (n=5). Following treatment was given to the rats as single dose: […] The percentage inhibition of edema was calculated for each group with respect to the vehicle received control group of animals.

[10] = before treatment, group 0.5 mg/kg

## CN1C(=O)CN=C(c2ccccc2)c2cc(Cl)ccc21 [Diazepam]
[1]; First week
  Duration of anoxia stress tolerance: 34.50 min
[1]; Second week
  Duration of anoxia stress tolerance: 37.33 min
[1]; Third week
  Duration of anoxia stress tolerance: 37.00 min

## COc1ccc(Cl)cc1C(=O)NCCc1ccc(S(=O)(=O)NC(=O)NC2CCCCC2)cc1 [Glibenclamide]
[2]; 0.5 mg/kg for 28 days
  Fasting blood glucose (FBG) level after 28 days: 124 mg/dL
[2]; Day 1 (Initial), standard drug
  Fasting Blood Glucose level: 422 mg/dL
[2]; Day 7, standard drug
  Fasting Blood Glucose level: 380 mg/dL
[2]; Day 14, standard drug
  Fasting Blood Glucose level: 245 mg/dL
[2]; Day 21, standard drug
  Fasting Blood Glucose level: 196 mg/dL
[2]; Day 28, standard drug
  Fasting Blood Glucose level: 124 mg/dL
[2]; [10]
  Fasting blood glucose (FBG) level, initial: 422 mg/dL
[3]; 0.5 mg/kg for 28 days
  Fasting blood glucose (FBG) level after 28 days: 125 mg/dL
[3]; Day 1 (Initial), standard drug
  Fasting Blood Glucose level: 423 mg/dL
[3]; Day 7, standard drug
  Fasting Blood Glucose level: 381 mg/dL
[3]; Day 14, standard drug
  Fasting Blood Glucose level: 246 mg/dL
[3]; Day 21, standard drug
  Fasting Blood Glucose level: 197 mg/dL
[3]; Day 28, standard drug
  Fasting Blood Glucose level: 125 mg/dL
[3]; [10]
  Fasting blood glucose (FBG) level, initial: 423 mg/dL

## CNCCC(Oc1ccc(C(F)(F)F)cc1)c1ccccc1 (centres unmarked) [Fluoxetine]
[4]
  Immobility time: 120 s
[5]
  Immobility time: 120 s
[6]
  Immobility time: 122 s
[7]
  Immobility time: 122 s and 120 s
[8]
  Immobility time: 122 s

## COc1ccc2c(c1)c(CC(=O)O)c(C)n2C(=O)c1ccc(Cl)cc1 [Indomethacin]
[9]; 0.5 hr
  inhibition at 10 mg/kg: 28%
[9]; 1 hr
  inhibition at 10 mg/kg: 65%
[9]; 2 hr
  inhibition at 10 mg/kg: 80%
[9]; 3 hr
  inhibition at 10 mg/kg: 86%
